Reference: PubChem BioAssay (NCI)
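Abbreviation: GI50, concentration required for 50% inhibition of growth. The concentration for full growth arrest is given as TGI.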

Columns and labels:
Test in all cases: DTP human tumour cell line panel, 384-well format
786-0 renal = tested on: 786-0 renal
A498 renal = tested on: A498 renal
A549 NSCLC = tested on: A549 NSCLC
ACHN renal = tested on: ACHN renal
BT-549 breast = tested on: BT-549 breast
CAKI-1 renal = tested on: CAKI-1 renal
COLO 205 colon = tested on: COLO 205 colon
DU-145 prostate = tested on: DU-145 prostate
EKVX NSCLC = tested on: EKVX NSCLC
HCC-2998 colon = tested on: HCC-2998 colon
HCT-116 colon = tested on: HCT-116 colon
HCT-15 colon = tested on: HCT-15 colon
HL-60(TB) leukemia = tested on: HL-60(TB) leukemia
HOP-62 NSCLC = tested on: HOP-62 NSCLC
HOP-92 NSCLC = tested on: HOP-92 NSCLC
HS 578T breast = tested on: HS 578T breast
HT29 colon = tested on: HT29 colon
IGROV1 ovarian = tested on: IGROV1 ovarian
KM12 colon = tested on: KM12 colon
LOX IMVI melanoma = tested on: LOX IMVI melanoma
M14 melanoma = tested on: M14 melanoma
MALME-3M melanoma = tested on: MALME-3M melanoma
MCF7 breast = tested on: MCF7 breast
MDA-MB-231 breast = tested on: MDA-MB-231 breast
MDA-MB-435 melanoma = tested on: MDA-MB-435 melanoma
MDA-MB-468 breast = tested on: MDA-MB-468 breast
MOLT-4 leukemia = tested on: MOLT-4 leukemia
NCI-H226 lung = tested on: NCI-H226 lung
NCI-H23 lung = tested on: NCI-H23 lung
NCI-H322M lung = tested on: NCI-H322M lung
NCI-H460 NSCLC = tested on: NCI-H460 NSCLC
NCI-H522 lung = tested on: NCI-H522 lung
NCI/ADR-RES ovarian = tested on: NCI/ADR-RES ovarian
OVCAR-3 ovarian = tested on: OVCAR-3 ovarian
OVCAR-4 ovarian = tested on: OVCAR-4 ovarian
OVCAR-5 ovarian = tested on: OVCAR-5 ovarian
OVCAR-8 ovarian = tested on: OVCAR-8 ovarian
PC-3 prostate = tested on: PC-3 prostate
RPMI-8226 leukemia = tested on: RPMI-8226 leukemia
SF-268 CNS = tested on: SF-268 CNS
SF-295 CNS = tested on: SF-295 CNS
SF-539 CNS = tested on: SF-539 CNS
SK-MEL-28 melanoma = tested on: SK-MEL-28 melanoma
SK-MEL-5 melanoma = tested on: SK-MEL-5 melanoma
SK-OV-3 ovarian = tested on: SK-OV-3 ovarian
SN12C renal = tested on: SN12C renal
SNB-19 CNS = tested on: SNB-19 CNS
SR leukemia = tested on: SR leukemia
SW-620 colon = tested on: SW-620 colon
T-47D breast = tested on: T-47D breast
TK-10 renal = tested on: TK-10 renal
U251 glioblastoma = tested on: U251 glioblastoma
UACC-257 melanoma = tested on: UACC-257 melanoma
UACC-62 melanoma = tested on: UACC-62 melanoma
UO-31 renal = tested on: UO-31 renal
CCRF-CEM leukemia = tested on: CCRF-CEM leukemia
K-562 leukemia = tested on: K-562 leukemia

With `Cc1nc(Nc2ncc(C(=O)Nc3c(C)cccc3Cl)s2)cc(N2CCN(CCO)CC2)n1` the GI50 ([…]-0 renal) was 0.0357 µM, the TGI (786-0 renal) was 2.5 µM and the GI50 (A498 renal) was 0.251 µM. It also gave a TGI (A498 renal) of 2.75 µM, a GI50 (A549 NSCLC) of 0.0275 µM and a TGI (A549 NSCLC) of 12.6 µM. For the same molecule, the GI50 (ACHN renal) was 0.0172 µM, the TGI (ACHN renal) was 0.234 µM and the GI50 (BT-549 breast) was 0.0327 µM. The TGI (BT-549 breast) was 1.26 µM, the GI50 (CAKI-1 renal) was 0.0277 µM and the TGI (CAKI-1 renal) was 0.225 µM. For the same molecule, the GI50 (COLO 205 colon) was 3.8 µM, the TGI (COLO 205 colon) was 10.7 µM and the GI50 (DU-145 prostate) was 0.227 µM. The TGI (DU-145 prostate) was 4.85 µM, the GI50 (EKVX NSCLC) was 0.724 µM and the TGI (EKVX NSCLC) was 15.6 µM. For the same molecule, the GI50 (HCC-2998 colon) was 5.08 µM, the TGI (HCC-2998 colon) was 16.8 µM and the GI50 (HCT-116 colon) was 4.83 µM. For the same molecule, the TGI (HCT-116 colon) was 17.4 µM, the GI50 (HCT-15 colon) was 1.03 µM and the TGI (HCT-15 colon) was 13.7 µM. For the same molecule, the GI50 (HL-60(TB) leukemia) was 7.23 µM, the TGI (HL-60(TB) leukemia) was 18.1 µM and the GI50 (HOP-62 NSCLC) was 0.0648 µM. The TGI (HOP-62 NSCLC) was 12.2 µM, the GI50 (HOP-92 NSCLC) was 0.0372 µM and the TGI (HOP-92 NSCLC) was 2.04 µM. The GI50 (HS 578T breast) was 0.0129 µM, the TGI (HS 578T breast) was 0.0494 µM and the GI50 (HT29 colon) was 2.02 µM. It also gave a TGI (HT29 colon) of 13.3 µM, a TGI (IGROV1 ovarian) of 0.0375 µM and a GI50 (KM12 colon) of 7.3 µM. For the same molecule, the TGI (KM12 colon) was 19.8 µM, the GI50 (LOX IMVI melanoma) was 0.0277 µM and the TGI (LOX IMVI melanoma) was 1.25 µM. It also gave a GI50 (M14 melanoma) of 2.86 µM, a TGI (M14 melanoma) of 8.23 µM and a GI50 (MALME-3M melanoma) of 3.19 µM. It also gave a TGI (MALME-3M melanoma) of 8.82 µM, a GI50 (MCF7 breast) of 10 µM and a TGI (MCF7 breast) of 21.7 µM. It also gave a GI50 (MDA-MB-231 breast) of 0.0251 µM, a TGI (MDA-MB-231 breast) of 1.04 µM and a GI50 (MDA-MB-435 melanoma) of 9.25 µM. For the same molecule, the TGI (MDA-MB-435 melanoma) was 20.8 µM, the GI50 (MDA-MB-468 breast) was 0.695 µM and the TGI (MDA-MB-468 breast) was 4.51 µM. It also gave a GI50 (MOLT-4 leukemia) of 1 µM, a TGI (MOLT-4 leukemia) of 3 µM and a GI50 (NCI-H226 lung) of 0.0247 µM. It also gave a TGI (NCI-H226 lung) of 2.64 µM, a GI50 (NCI-H23 lung) of 2.59 µM and a TGI (NCI-H23 lung) of 10.7 µM. For the same molecule, the GI50 (NCI-H322M lung) was 0.0381 µM, the TGI (NCI-H322M lung) was 0.973 µM and the GI50 (NCI-H460 NSCLC) was 9.52 µM. It also gave a TGI (NCI-H460 NSCLC) of 21.4 µM, a GI50 (NCI-H522 lung) of 0.0135 µM and a TGI (NCI-H522 lung) of 0.098 µM. It also gave a GI50 (NCI/ADR-RES ovarian) of 1.87 µM, a TGI (NCI/ADR-RES ovarian) of 14.7 µM and a GI50 (OVCAR-3 ovarian) of 0.0151 µM. It also gave a TGI (OVCAR-3 ovarian) of 0.419 µM, a GI50 (OVCAR-4 ovarian) of 0.0588 µM and a TGI (OVCAR-4 ovarian) of 0.85 µM. The GI50 (OVCAR-5 ovarian) was 0.041 µM, the TGI (OVCAR-5 ovarian) was 6.27 µM and the GI50 (OVCAR-8 ovarian) was 0.0643 µM. The TGI (OVCAR-8 ovarian) was 2.97 µM, the GI50 (PC-3 prostate) was 3.12 µM and the TGI (PC-3 prostate) was 17.5 µM. It also gave a GI50 (RPMI-8226 leukemia) of 2.11 µM, a TGI (RPMI-8226 leukemia) of 5.5 µM and a GI50 (SF-268 CNS) of 0.0303 µM. The TGI (SF-268 CNS) was 0.128 µM, the GI50 (SF-295 CNS) was 2.59 µM and the TGI (SF-295 CNS) was 18.9 µM. For the same molecule, the GI50 (SF-539 CNS) was 0.0482 µM, the TGI (SF-539 CNS) was 1.64 µM and the GI50 (SK-MEL-28 melanoma) was 5.62 µM. It also gave a TGI (SK-MEL-28 melanoma) of 18.7 µM, a GI50 (SK-MEL-5 melanoma) of 4.26 µM and a TGI (SK-MEL-5 melanoma) of 15.1 µM. The GI50 (SK-OV-3 ovarian) was 0.0496 µM, the TGI (SK-OV-3 ovarian) was 3.14 µM and the GI50 (SN12C renal) was 0.0139 µM. The TGI (SN12C renal) was 3.39 µM, the GI50 (SNB-19 CNS) was 8.69 µM and the TGI (SNB-19 CNS) was 21.7 µM. For the same molecule, the GI50 (SR leukemia) was 5.44 µM, the TGI (SR leukemia) was 8.78 µM and the GI50 (SW-620 colon) was 15.1 µM. The TGI (SW-620 colon) was 28.6 µM, the GI50 (T-47D breast) was 0.176 µM and the TGI (T-47D breast) was 15.1 µM. For the same molecule, the GI50 (TK-10 renal) was 0.0259 µM, the TGI (TK-10 renal) was 0.164 µM and the GI50 (U251 glioblastoma) was 4.2 µM. For the same molecule, the TGI (U251 glioblastoma) was 17.8 µM, the GI50 (UACC-257 melanoma) was 5.53 µM and the TGI (UACC-257 melanoma) was 18.2 µM. The GI50 (UACC-62 melanoma) was 2.05 µM, the TGI (UACC-62 melanoma) was 10.1 µM and the GI50 (UO-31 renal) was 0.057 µM. For the same molecule, the TGI (UO-31 renal) was 0.84 µM.
Molecule `CN(C)/N=N/c1nc[nH]c1C(N)=O` has a GI50 (CAKI-1 renal) of 34.7 µM, a GI50 (CCRF-CEM leukemia) of 45.5 µM and a GI50 (DU-145 prostate) of 83.8 µM. The GI50 (HCT-116 colon) was 66.3 µM, the GI50 (HL-60(TB) leukemia) was 6.42 µM and the GI50 (K-562 leukemia) was 44.6 µM. For the same molecule, the GI50 (LOX IMVI melanoma) was 29.2 µM, the GI50 (MALME-3M melanoma) was 79.5 µM and the GI50 (MDA-MB-468 breast) was 30.4 µM. For the same molecule, the GI50 (MOLT-4 leukemia) was 6.9 µM, the TGI (MOLT-4 leukemia) was 21.7 µM and the GI50 (OVCAR-8 ovarian) was 69.9 µM. For the same molecule, the GI50 (RPMI-8226 leukemia) was 18.3 µM, the GI50 (SK-OV-3 ovarian) was 95.3 µM and the GI50 (SW-620 colon) was 97.4 µM.
